What all share (type): cell-based
Test [1] concerns IL6. In words: LPS stimulated IL6 inhibition assay in PBMC. The settings on record: Homo sapiens, PBMC, 24 h, human PBMCs, LPS stimulation, compound overnight, IL6 by MSD after 24 hrs; for Dmax: read-out: LPS Stim IL6 inhibition Dmax; for IC50: read-out: LPS stim IL6 inhibition IC50. The method, boiled down: (§1)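 Read-out: MSD quantification of IL6 or IL8 in media collected 24 hrs after stimulation. Human PBMCs (2.0×10^6 cells/mL) received compound overnight before stimulant dosing at an EC50 concentration determined per donor.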

Test [2] has as its target T1, IRAK-4 (Homo sapiens, UniProt Q9NWZ3).
T1 sequence (Q9NWZ3 1-460): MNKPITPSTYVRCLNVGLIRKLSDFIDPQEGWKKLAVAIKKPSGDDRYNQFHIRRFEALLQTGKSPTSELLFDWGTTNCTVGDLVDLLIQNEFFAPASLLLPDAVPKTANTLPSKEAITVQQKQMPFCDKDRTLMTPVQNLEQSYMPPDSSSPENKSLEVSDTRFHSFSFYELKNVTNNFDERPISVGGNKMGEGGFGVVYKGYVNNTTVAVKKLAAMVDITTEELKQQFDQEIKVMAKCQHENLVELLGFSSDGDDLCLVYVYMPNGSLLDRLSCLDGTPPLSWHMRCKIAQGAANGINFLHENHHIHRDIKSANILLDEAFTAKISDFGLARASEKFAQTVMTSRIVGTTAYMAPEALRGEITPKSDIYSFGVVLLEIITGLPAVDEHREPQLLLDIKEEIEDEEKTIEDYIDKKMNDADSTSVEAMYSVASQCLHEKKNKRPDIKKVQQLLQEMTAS
In words: IRAK-4 ELISA, OCI-Ly10 degradation. Also on record: endogenous in cells. The settings on record: treated overnight; for Dmax: OCI-Ly10, OCI-Ly10 cells; for DC50: OCI-Ly10 cells. On the procedure: Reagents: Human IRAK-4 Matched Antibody Pair Kit (Abcam ab218182) and ELISA Accessory Pack (Abcam ab210905).
Cell Treatment and Lysis:
1. OCI-Ly10: 200,000 cells are seeded at 1×10^6/ml in 96-well U-bottom plates 200 ul per well, treated with compound the same day. Incubate overnight. 2. PBMC: 800,000 cells are seeded at 2×10^6/ml in 96-well U-bottom deep-well plates, 400 ul per well, treated with compound the same day. Incubate overnight.
Cell lysate is collected and analyzed by ELISA for IRAK-4 levels.
In general terms: In an ELISA, binding on a coated surface is turned into a signal by an enzyme label.

In test [3] the test system is IL6. Nature of the test: R848 stimulated IL6 inhibition assay in PBMC. The settings on record: PBMC, human PBMCs, R848 stimulation, compound overnight, IL6 by MSD after 24 hrs; for Dmax: Homo sapiens, 24 h, read-out: R848 stim IL6 inhibition Dmax; for IC50: read-out: R848 stim IL6 inhibition IC50. The method, boiled down: as §1
Test [4] concerns the target T1, IRAK-4. Nature of the test: IRAK-4 ELISA, PBMC degradation. Also on record: endogenous in cells; host or cells: PBMC. The conditions noted are these: treated overnight. The method, boiled down:
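Steps: seed cells (OCI-Ly10 1×10^6/ml; PBMC 2×10^6/ml); add compound the same day; incubate overnight; lyse; quantify IRAK-4 by matched-pair ELISA.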

A value given as a limit tells only on which side of the number the result lay.

In general, IC50 refers to the concentration that inhibits the measured activity by half. The DC50 is the concentration giving 50% degradation. Low readings indicate a more potent degrader, high ones a less potent degrader. On to `CC(C)Oc1cc2c(cc1NC(=O)c1cnn3cccnc13)CN(C1CCN(C(C)(C)C3CCN(c4ccc5c(c4)C(=O)N(C4CCC(=O)NC4=O)C5=O)CC3)CC1)C2=O` (centres unmarked) [Example 82], for which, in the test with IL6 [1], the Dmax is 70 to 80% and the IC50 lay within 10 to 50 nM. At IRAK-4 [2], the Dmax was ≥ 90% and the DC50 is < 10 nM. For the same molecule, in the test on IL6 [3], the Dmax is ≥ 90% and the IC50 lay in the range of 10 to 50 nM. On IRAK-4 [4], the DC50 is < 1 nM, the Dmax is ≥ 90% and the “PBMC DC90” value is reported as “A (A represents a DC90 value <10.0 nM)”.

As to `O=C1CCC(N2C(=O)c3ccc(N4CCC(CN5CCC(n6cc7cc(NC(=O)c8cnn9cc(Cl)cnc89)c(OCC8CC8)cc7n6)CC5)CC4)cc3C2=O)C(=O)N1` (centres unmarked) [Example 128], in the test on IL6 [1], the Dmax lay within 70 to 80% and the IC50 was 10 to 50 nM. In addition, on IRAK-4 [2], the Dmax was ≥ 90% and the DC50 fell in the range of 10 to 50 nM. Besides, in the test on IL6 [3], the Dmax was 80 to 90% and the IC50 lay in the range of 10 to 50 nM.

For `CC(C)Oc1cc2c(cc1NC(=O)c1cnn3cccnc13)CN([C@H]1CCN(CC3CCN(c4ccc5c(c4)C(=O)N(C4CCC(=O)NC4=O)C5=O)CC3)C[C@@H]1F)C2=O` (some centres unmarked) [Example 91], on IRAK-4 [2], the Dmax is ≥ 90% and the DC50 was in the range of 10 to 50 nM. Moreover, at IRAK-4 [4], the DC50 was 1 to 5 nM; the Dmax was ≥ 90%; the “PBMC DC90” value was “B (B represents a DC90 value ≥10.0 nM and <25.0 nM)”.

On IRAK-4 [2], `O=C1CCC(N2C(=O)c3ccc(N4CCC(CN5CC[C@H](N6Cc7cc(NC(=O)c8cnn9cccnc89)c(N8CCOCC8)cc7C6=O)[C@@H](F)C5)CC4)cc3C2=O)C(=O)N1` (some centres unmarked) [Example 94] gave a Dmax of 70 to 80% and a DC50 of 10 to 50 nM. Moreover, at IRAK-4 [4], the DC50 was in the range of 1 to 5 nM, the Dmax is ≥ 90% and the “PBMC DC90” value is reported as “A (A represents a DC90 value <10.0 nM)”.

Regarding `CC(C)(C1CCN(c2ccc3c(c2)C(=O)N(C2CCC(=O)NC2=O)C3=O)CC1)N1CCC(N2Cc3cc(NC(=O)c4cnn5cccnc45)c(OCC4CC4)cc3C2=O)CC1` (centres unmarked) [Example 87], on IRAK-4 [2], the Dmax was ≥ 90% and the DC50 was 50 to 100 nM. Besides, at IRAK-4 [4], the DC50 fell in the range of 5 to 10 nM, the Dmax fell in the range of 80 to 90% and the “PBMC DC90” value is listed as “D (D represents a DC90 value ≥50 nM)”.

With `O=C1CCC(N2C(=O)c3ccc(N4CC(CN5CCC(N6Cc7cc(NC(=O)c8cnn9cccnc89)c(N8CCC(N9CCC9)CC8)cc7C6=O)CC5)C4)cc3C2=O)C(=O)N1` (centres unmarked) [Example 98], on IRAK-4 [2], the Dmax was ≥ 90% and the DC50 was in the range of 10 to 50 nM. Besides, on IRAK-4 [4], the DC50 was 5 to 10 nM, the Dmax fell in the range of 70 to 80% and the “PBMC DC90” value was “D (D represents a DC90 value ≥50 nM)”.

For the molecule `O=C1CCC(N2C(=O)c3ccc(N4CCC(F)(CN5CCC(N6Cc7cc(NC(=O)c8cnn9cccnc89)c(OCC8CC8)cc7C6=O)CC5)CC4)cc3C2=O)C(=O)N1` (centres unmarked) [Example 88], in the test on IL6 [1], the Dmax was 70 to 80% and the IC50 lay within 10 to 50 nM. Besides, on IRAK-4 [2], the Dmax was in the range of 80 to 90% and the DC50 is 50 to 100 nM. On IRAK-4 [4], the DC50 was < 1 nM, the Dmax is ≥ 90% and the “PBMC DC90” value was “A (A represents a DC90 value <10.0 nM)”.

On to `CC(C)Oc1cc2c(cc1NC(=O)c1cnn3cccnc13)CN(C1CCN(CC3(F)CCN(c4ccc5c(c4)C(=O)N(C4CCC(=O)NC4=O)C5=O)CC3)CC1)C2=O` (centres unmarked) [Example 58], for which, at IRAK-4 [2], the Dmax was ≥ 90% and the DC50 fell in the range of 10 to 50 nM. In addition, on IRAK-4 [4], the DC50 lay within 1 to 5 nM; the Dmax was ≥ 90%; the “PBMC DC90” value was “B (B represents a DC90 value ≥10.0 nM and <25.0 nM)”.

The values are drawn from patent US20230099344A1, “COMPOUNDS AND METHODS FOR THE TARGETED DEGRADATION OF IRAK-4” (Arvinas Operations, Inc., priority 2021, published 2023).
